Legend:
[1] = Stability assay for human liver microsomes in vitro; format: in vitro ADME; conditions: 1 μM compound, 0.5 mg/mL liver microsomes, read-out: Human liver microsome stability T1/2
Description: • Human liver microsomes, purchased from Corning or Xenotech, stored in a −80° C. refrigerator. • Nicotinamide adenine dinucleotide phosphate (NADPH), Chem-impex international, 00616 • Control compounds: testosterone, diclofenac, propafenone
• Water bath (HH-60, Guohua, Changzhou, China) • Pipette workstation (PP-550DS, Apricot, Covina, USA) • Centrifuge (5810R, Eppendorf, Hamburg, Germany) • Mass Spectrometer (Sciex API 4000, Singapore) • High Performance Liquid Chromatography (LC 20-AD, Shimadzu, Kyoto, Japan) • Sampler (ADDA, Apricot Designs, California, USA)
• Stock solution: 10 mM in DMSO • Working solution concentration preparation: 10 mM stock solution was diluted to 100 μM with 100% acetonitrile (organic phase content: 99% ACN, 1% DMSO)
Two 96-well incubation plates were named T60 incubation plate and NCF60 incubation plate.
445 μL microsomal working solution (liver microsomal protein concentration: 0.56 mg/mL) was added to the T60 and NCF60 incubation plates respectively, then the incubation plates above were placed in a water bath at 37° C. for pre-incubation approximately 10 minutes.
After the pre-incubation finished, 5 μL of the test compound working solution was added to the T60 and NCF60 incubation plates respectively, and mixed well. 50 μL potassium phosphate buffer was added to each well on the NCF60 incubation plate to start the reaction. 180 μL termination solution (acetonitrile solution containing 200 ng/mL tolbutamide and 200 ng/mL labetalol) and 6 uL working solution of NADPH regeneration system were added to the TO termination plate, and 54 μL samples were removed from the T60 incubation plate to the TO termination plate (TO sample generated). The reaction was initiated by adding 44 μL of NADPH regenerating system working solution per well on the T60 incubation plate. Only 54 μL microsomal working solution, 6 uL NADPH regeneration system working solution, and 180 μL termination solution were added to the Blank plate. Therefore, in the samples of the test or control compounds, the final reaction concentration of the compounds, testosterone, diclofenac and propafenone was 1 μM, the concentration of the liver microsomes was 0.5 mg/mL, and the final concentration of DMSO and acetonitrile in the reaction system was 0.01% (v/v) and 0.99% (v/v), respectively.
After incubation for an appropriate time (e.g. 5, 10, 20, 30, and 60 minutes), 180 μL of termination solution (acetonitrile solution containing 200 ng/mL tolbutamide and 200 ng/mL labetalol) was added to the sample hole of each termination plate, respectively. After that, 60 μL sample was removed from the T60 incubation plate to terminate the reaction.
All sample plates were shaken evenly and centrifuged at 3220×g for 20 min. Then 80 μL supernatant was taken from each well and diluted to 240 μL pure water for LC-MS/MS analysis.
All samples were injected for analysis.

Human Nav1.8 ion channel = Human Nav1.8 ion channel (Homo sapiens (Human), UniProt Q9Y5Y9); test: Manual patch clamp, Method 2 (HEK293 cells stably expressing human Nav1.8, resting state); format: cell-based; conditions: Method 2, HEK293-hNav1.8, resting state, 1 μM TTX; read-out: IC50 inhibitory activity against hNav1.8
hNav1.8 = hNav1.8 (Homo sapiens (Human), UniProt Q9Y5Y9); test: Manual patch clamp, Method 1 (CHO cell line stably expressing hNav1.8); format: cell-based; conditions: for inhibition at 0.01 µM: 10 nM; for inhibition at 0.01 µM / inhibition at 0.1 µM: Method 1, CHO-hNav1.8, read-out: Inhibition rate of hNav1.8; for inhibition at 0.1 µM: 100 nM; for IC50: Method 1, CHO-hNav1.8, manual patch clamp, resting state, read-out: IC50 inhibitory activity against hNav1.8
hNav1.8, sequence (Q9Y5Y9 whole entry): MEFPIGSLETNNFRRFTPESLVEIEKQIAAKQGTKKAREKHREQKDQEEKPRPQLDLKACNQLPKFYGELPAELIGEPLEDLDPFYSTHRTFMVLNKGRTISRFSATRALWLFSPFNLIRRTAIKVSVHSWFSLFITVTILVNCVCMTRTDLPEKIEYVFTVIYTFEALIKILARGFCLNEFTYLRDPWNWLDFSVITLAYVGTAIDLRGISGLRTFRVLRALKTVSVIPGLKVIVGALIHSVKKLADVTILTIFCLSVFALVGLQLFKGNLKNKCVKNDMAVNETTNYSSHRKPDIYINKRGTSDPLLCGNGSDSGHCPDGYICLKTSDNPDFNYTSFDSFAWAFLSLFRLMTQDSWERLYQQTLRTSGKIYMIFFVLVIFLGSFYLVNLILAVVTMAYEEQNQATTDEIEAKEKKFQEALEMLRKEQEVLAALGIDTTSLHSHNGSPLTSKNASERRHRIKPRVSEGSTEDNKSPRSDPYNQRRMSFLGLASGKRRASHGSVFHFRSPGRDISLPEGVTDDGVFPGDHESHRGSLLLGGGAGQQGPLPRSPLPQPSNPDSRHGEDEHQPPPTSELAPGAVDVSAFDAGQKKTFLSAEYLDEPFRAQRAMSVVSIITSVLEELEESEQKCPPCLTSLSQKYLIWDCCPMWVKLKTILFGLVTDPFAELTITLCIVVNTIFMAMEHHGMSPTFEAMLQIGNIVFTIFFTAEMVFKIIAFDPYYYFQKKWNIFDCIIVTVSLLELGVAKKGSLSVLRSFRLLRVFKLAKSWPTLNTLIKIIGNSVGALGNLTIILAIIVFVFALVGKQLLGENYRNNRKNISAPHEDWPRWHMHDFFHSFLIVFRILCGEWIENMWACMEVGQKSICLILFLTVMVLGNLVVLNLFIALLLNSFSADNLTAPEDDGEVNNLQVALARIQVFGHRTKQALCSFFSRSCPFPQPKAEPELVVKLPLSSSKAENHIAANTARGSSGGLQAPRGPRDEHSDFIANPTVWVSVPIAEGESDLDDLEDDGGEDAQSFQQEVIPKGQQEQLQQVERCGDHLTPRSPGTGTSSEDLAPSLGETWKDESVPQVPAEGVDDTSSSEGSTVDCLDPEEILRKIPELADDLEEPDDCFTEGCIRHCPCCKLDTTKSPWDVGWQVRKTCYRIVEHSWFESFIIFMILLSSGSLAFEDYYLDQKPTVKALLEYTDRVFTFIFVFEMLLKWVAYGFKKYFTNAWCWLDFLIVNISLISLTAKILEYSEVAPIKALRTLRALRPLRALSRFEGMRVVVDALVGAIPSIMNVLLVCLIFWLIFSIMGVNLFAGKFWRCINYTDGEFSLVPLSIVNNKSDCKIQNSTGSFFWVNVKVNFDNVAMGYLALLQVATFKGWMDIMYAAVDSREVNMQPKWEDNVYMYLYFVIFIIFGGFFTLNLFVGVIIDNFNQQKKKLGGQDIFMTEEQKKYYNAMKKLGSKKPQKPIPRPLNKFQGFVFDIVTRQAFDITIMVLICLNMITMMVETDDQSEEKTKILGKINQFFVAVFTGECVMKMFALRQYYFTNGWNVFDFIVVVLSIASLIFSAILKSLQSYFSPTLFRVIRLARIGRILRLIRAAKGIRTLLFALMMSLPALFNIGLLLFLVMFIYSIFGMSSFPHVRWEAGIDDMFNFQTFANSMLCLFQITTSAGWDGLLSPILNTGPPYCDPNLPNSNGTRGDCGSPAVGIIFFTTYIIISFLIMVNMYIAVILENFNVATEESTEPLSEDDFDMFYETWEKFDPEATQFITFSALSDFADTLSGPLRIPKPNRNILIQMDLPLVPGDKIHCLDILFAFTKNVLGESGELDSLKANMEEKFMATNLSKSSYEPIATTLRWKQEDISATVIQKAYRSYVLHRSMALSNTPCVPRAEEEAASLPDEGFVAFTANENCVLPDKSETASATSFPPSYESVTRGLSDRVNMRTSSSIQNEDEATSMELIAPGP

Row | Compound | half-life at 1 µM [1] [min] | IC50 (Human Nav1.8 ion channel) [nM] | inhibition at 0.01 µM (hNav1.8) [%] | inhibition at 0.1 µM (hNav1.8) [%] | IC50 (hNav1.8) [nM]
1 | NS(=O)(=O)c1cc(NC(=O)c2cc3ccccc3nc2N2CCCC(F)(F)CC2)ccn1 [Example 14, 2-(4,4-difluoroazepan-1-yl)-N-(2-sulfamoylpyridine-4-yl) quinoline-3-carboxamide] | > 145 | 0.725 | 98 | 99.6 | 0.34
2 | NC(=O)c1cc(NC(=O)c2cc3cc(F)c(F)cc3nc2N2CCCC(F)(F)CC2)ccn1 [Example 10, N-(2-carbamoylpyridin-4-yl)-2-(4,4-difluoroazepan-1-yl)-6,7-difluoroquinoline-3-carboxamide] | 92.7 | 0.46 | 95.5 | 99.1 | 0.784
3 | NC(=O)c1cc(NC(=O)c2cc3ccccc3nc2N2CCCC(F)(F)CC2)ccn1 [Example 08, N-(2-carbamoylpyridin-4-yl)-2-(4,4-difluoroazepan-1-yl)quinoline-3-carboxamide] | 23 | 1.74 | 75.4 | 96.6 | 3.3
4 | NS(=O)(=O)c1cccc(NC(=O)c2cc3cc(F)c(F)cc3nc2N2CCCC(F)(F)CC2)c1 [Example 16, 2-(4,4-difluoroazepan-1-yl)-6,7-difluoro-N-(3-sulfamoylphenyl) quinoline-3-carboxamide] | 41.3 | 0.071 | 99.8 | 100 | 0.084
5 | NC(=O)c1cc(NC(=O)c2nc3ccccc3nc2N2CCCC(F)(F)CC2)ccc1F [Example 02, N-(3-carbamoyl-4-fluorophenyl)-3-(4,4-difluoroazepan-1-yl)quinoxaline-2-carboxamide] | 58.8 | 2.82 | 66.1 | 96.1 | 5.3
6 | NC(=O)c1cc(NC(=O)c2nc3ccccc3nc2N2CCCC(F)(F)CC2)ccn1 [Example 05, N-(2-carbamoylpyridin-4-yl)-3-(4,4-difluoroazepan-1-yl)quinoxaline-2-carboxamide] | 93.7 | 21.3 | 46.7 | 90.5 | 8.9

Reference: patent US20250115578A1, “AROMATIC FUSED RING NAV1.8 INHIBITOR, AND USE THEREOF” (CHENGDU KANGHONG PHARMACEUTICAL CO., LTD., priority 2022, published 2025)
